Active and inactive are the calls of the source. No cut-off for these calls is given here.
Key:
[1] = test system: H9c2; assay: Cardioprotective activity against CoCl2-induced cellular hypoxia injury in rat H9c2 cells assessed as cell viability at 5 uM incubated for 24 hrs by CCK-8 assay (reference value: 51.80 +/- 2.58 %); type: functional; details: read-out: Activity
[2] = test system: H9c2; assay: Cardioprotective activity against CoCl2-induced cellular hypoxia injury in rat H9c2 cells assessed as cell viability at 2.5 uM incubated for 24 hrs by CCK-8 assay (reference value: 51.80 +/- 2.58 %); type: functional; details: read-out: Activity
[3] = test system: H9c2; assay: Cardioprotective activity against CoCl2-induced cellular hypoxia injury in rat H9c2 cells assessed as increase in cell viability at 30 uM incubated for 24 hrs by CCK-8 assay; type: functional, cell-based
[4] = target: T1, NAD-dependent protein deacetylase sirtuin-1 (Homo sapiens) (UniProt Q96EB6); assay: Activation of SIRT1 (unknown origin) using RHKK-ac-AMC as substrate incubated for 2 hrs by FDL assay relative to control; details: filed as activator
T1 sequence (whole entry): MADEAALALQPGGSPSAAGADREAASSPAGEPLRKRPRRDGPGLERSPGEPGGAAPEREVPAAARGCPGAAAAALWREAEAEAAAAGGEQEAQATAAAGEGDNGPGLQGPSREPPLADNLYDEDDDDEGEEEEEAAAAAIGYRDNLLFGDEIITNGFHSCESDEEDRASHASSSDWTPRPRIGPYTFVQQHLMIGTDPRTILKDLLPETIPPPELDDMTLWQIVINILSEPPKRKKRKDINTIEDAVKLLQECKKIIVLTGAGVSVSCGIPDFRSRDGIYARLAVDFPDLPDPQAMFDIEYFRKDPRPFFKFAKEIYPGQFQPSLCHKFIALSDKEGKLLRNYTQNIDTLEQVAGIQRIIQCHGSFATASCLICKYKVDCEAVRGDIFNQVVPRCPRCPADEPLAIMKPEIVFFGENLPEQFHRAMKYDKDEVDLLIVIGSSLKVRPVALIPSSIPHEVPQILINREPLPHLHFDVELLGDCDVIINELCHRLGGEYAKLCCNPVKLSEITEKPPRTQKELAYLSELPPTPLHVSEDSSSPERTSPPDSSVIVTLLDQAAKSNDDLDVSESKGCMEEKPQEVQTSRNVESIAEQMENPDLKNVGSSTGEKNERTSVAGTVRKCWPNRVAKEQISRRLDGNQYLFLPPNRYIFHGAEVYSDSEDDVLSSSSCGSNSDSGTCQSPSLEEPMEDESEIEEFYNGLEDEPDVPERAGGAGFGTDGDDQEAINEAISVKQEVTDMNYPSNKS

[5] = test system: H9c2; assay: Cardioprotective activity against CoCl2-induced cellular hypoxia injury in rat H9c2 cells assessed as cell viability at 0.625 uM incubated for 24 hrs by CCK-8 assay (reference value: 51.80 +/- 2.58 %); type: functional; details: read-out: Activity
[6] = test system: H9c2; assay: Cardioprotective activity against CoCl2-induced cellular hypoxia injury in rat H9c2 cells assessed as cell viability at 1.25 uM incubated for 24 hrs by CCK-8 assay (reference value: 51.80 +/- 2.58 %); type: functional; details: read-out: Activity
[7] = test system: H9c2; assay: Cardioprotective activity against CoCl2-induced cellular hypoxia injury in rat H9c2 cells assessed as cell viability at 10 uM incubated for 24 hrs by CCK-8 assay (reference value: 51.80 +/- 2.58 %); type: functional; details: read-out: Activity
[8] = Induction of H2S release in PBS at pH 7.4 at 100 uM measured upto 60 mins by methylene blue method; type: functional
[9] = test system: H9c2; assay: Induction of H2S release in rat H9c2 cells incubated for 24 hrs by AzMC probe based analysis; type: functional, cell-based; details: dose 1.25-10 µM
[10] = Induction of H2S release in PBS at pH 7.4 measured upto 60 mins by methylene blue method; type: functional
[11] = target: T2, NAD-dependent protein deacetylase sirtuin-1 (Rattus norvegicus) (UniProt A0A0G2JZ79); assay: Activation of SIRT1 in CoCl2-induced cellular hypoxia injury in rat H9c2 cells at 50 uM incubated for 24 hrs by Western blot analysis; type: cell-based; details: filed as activator
T2 sequence (whole entry): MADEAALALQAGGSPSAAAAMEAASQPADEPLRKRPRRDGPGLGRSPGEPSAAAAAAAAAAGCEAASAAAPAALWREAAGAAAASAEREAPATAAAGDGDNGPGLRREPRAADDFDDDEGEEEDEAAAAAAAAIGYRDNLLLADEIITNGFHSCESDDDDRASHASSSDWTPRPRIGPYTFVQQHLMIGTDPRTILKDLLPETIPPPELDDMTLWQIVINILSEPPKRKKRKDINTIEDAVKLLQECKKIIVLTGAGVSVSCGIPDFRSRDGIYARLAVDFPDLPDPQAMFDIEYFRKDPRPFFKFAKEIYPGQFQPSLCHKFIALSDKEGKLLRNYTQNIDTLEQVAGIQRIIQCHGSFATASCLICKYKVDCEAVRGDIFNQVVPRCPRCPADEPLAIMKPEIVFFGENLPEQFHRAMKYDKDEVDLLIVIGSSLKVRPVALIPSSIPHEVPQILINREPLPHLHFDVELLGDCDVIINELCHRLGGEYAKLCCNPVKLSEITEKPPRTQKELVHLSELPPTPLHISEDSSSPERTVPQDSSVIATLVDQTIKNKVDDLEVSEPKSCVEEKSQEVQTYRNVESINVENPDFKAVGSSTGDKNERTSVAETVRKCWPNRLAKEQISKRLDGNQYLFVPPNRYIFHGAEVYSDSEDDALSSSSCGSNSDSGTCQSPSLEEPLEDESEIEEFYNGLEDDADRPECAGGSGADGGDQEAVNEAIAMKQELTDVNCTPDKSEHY

[12] = test system: H9c2; assay: Cardioprotective activity against CoCl2-induced cellular hypoxia injury in rat H9c2 cells assessed as increase in PGC1-alpha level at 50 uM incubated for 24 hrs by Western blot analysis; type: functional, cell-based
[13] = test system: H9c2; assay: Inhibition of apoptosis in CoCl2-induced cellular hypoxia injury in rat H9c2 cells assessed as increase in caspase-3 level at 5 to 10 uM incubated for 24 hrs by Western blot analysis; type: functional, cell-based; details: dose 5-10 µM
[14] = test system: Rattus norvegicus; assay: Cardioprotective activity in myocardial ischemia Sprague-Dawley rat model assessed as decrease in ISO-induced ST segment at 50 mg/kg, IG treated for 7 days consecutively followed by ISO administration daily for 2 days consecutively by ECG analysis; type: functional, organism-based; details: time 9.0 day
[15] = test system: Rattus norvegicus; assay: In vivo activation of SIRT1 in myocardial tissue of myocardial ischemia Sprague-Dawley rat model at 50 mg/kg, IG treated for 7 days consecutively followed by ISO administration daily for 2 days consecutively by Western blot analysis; type: functional, organism-based; details: time 9.0 day
[16] = test system: H9c2; assay: Cardioprotective activity against CoCl2-induced cellular hypoxia injury in rat H9c2 cells assessed as mitochondrial membrane potential at 50 uM incubated for 24 hrs by JC-1 staining based analysis (reference value: 48.08 %); type: functional
[17] = test system: H9c2; assay: Cardioprotective activity against CoCl2-induced cellular hypoxia injury in rat H9c2 cells assessed as reduction in apoptosis at 50 uM incubated for 24 hrs by flow cytometry; type: functional, cell-based
[18] = test system: Rattus norvegicus; assay: Cardioprotective activity against myocardial ischemia Sprague-Dawley rat model assessed as increase in PGC1-alpha level in myocardial tissue at 50 mg/kg, IG treated for 7 days consecutively followed by ISO administration daily for 2 days consecutively by Western blot analysis; type: functional, organism-based; details: time 9.0 day
[19] = test system: H9c2; assay: Inhibition of apoptosis in CoCl2-induced cellular hypoxia injury in rat H9c2 cells assessed as decrease in Bax level at 5 to 10 uM incubated for 24 hrs by Western blot analysis; type: functional, cell-based; details: dose 5-10 µM
[20] = test system: H9c2; assay: Inhibition of apoptosis in CoCl2-induced cellular hypoxia injury in rat H9c2 cells assessed as increase in Bcl-2 level at 5 to 10 uM incubated for 24 hrs by Western blot analysis; type: functional, cell-based; details: dose 5-10 µM
[21] = test system: H9c2; assay: Cardioprotective activity against CoCl2-induced cellular hypoxia injury in rat H9c2 cells assessed as reduction in necrosis at 50 uM incubated for 24 hrs by flow cytometry; type: functional, cell-based

Row | Activity [4] [%] | Compound | viability at 5 µM [1] [%] | viability at 2.5 µM [2] [%] | Activity [3] | viability at 0.625 µM [5] [%] | viability at 1.25 µM [6] [%] | viability at 10 µM [7] [%] | Activity [8] | Activity [9] | Activity [10] [µM] | also measured
1 | 123 | CC(C)(O)[C@@H]1CC[C@@](C)([C@H]2CC[C@]3(C)[C@@H]2[C@H](O)C[C@@H]2[C@@]4(C)CC[C@H](O)C(C)(C)[C@@H]4CC[C@]23C)O1 | 79.1 | 74.8 | inactive | 70.6 | 72.6 | 81.2 | – | – | – | –
2 | – | CC(C)(O)[C@H]1CC[C@@](C)([C@H]2CC[C@]3(C)[C@@H]2[C@H](O)C[C@@H]2[C@@]4(C)CC[C@H](OC(=O)CCC(=O)Oc5ccc(-c6nc(=O)ss6)cc5)C(C)(C)[C@@H]4CC[C@]23C)O1 | 86.8 | 84.7 | inactive | 76.4 | 82 | 91.4 | Active | Dose-dependent-effect | 7 | –
3 | – | CC(C)(O)[C@@H]1CC[C@@](C)([C@H]2CC[C@]3(C)[C@@H]2[C@H](O)C[C@@H]2[C@@]4(C)CC[C@H](OC(=O)CCC(=O)Oc5ccc(-c6nc(=O)ss6)cc5)C(C)(C)[C@@H]4CC[C@]23C)O1 | 91 | 87.7 | inactive | 73.5 | 81.6 | 92.2 | Active | Dose-dependent-effect | 10 | –
4 | 158 | Oc1ccc(/C=C/c2cc(O)cc(O)c2)cc1 [RESVERATROL] | 68.5 | 64.1 | – | 58.3 | 58.8 | 76.1 | – | – | – | Activity [11]: Active; Activity [12]: Active; inhibition [13]: Active; Activity [14]: Active; Activity [15]: Active; Activity [16]: 73.27%; Activity [17]: Active; Activity [18]: Active; inhibition [19]: Active; inhibition [20]: Active; Activity [21]: Active
5 | – | CC(C)(O)[C@@H]1CC[C@@](C)([C@H]2CC[C@]3(C)[C@@H]2[C@H](O)C[C@@H]2[C@@]4(C)CC[C@H](OC(=O)CCC(=O)Oc5ccc(-c6nc(=O)ss6)cc5)C(C)(C)[C@@H]4[C@@H](O)C[C@]23C)O1 | 89.1 | 83.7 | inactive | 70.1 | 77.4 | 94.2 | Active | Dose-dependent-effect | 10.5 | –
6 | – | C=CCSSCCC(=O)O[C@H]1CC[C@]2(C)[C@H]3C[C@@H](O)[C@@H]4[C@@H]([C@]5(C)CC[C@@H](C(C)(C)O)O5)CC[C@@]4(C)[C@]3(C)C[C@H](O)[C@H]2C1(C)C | 89.1 | 79.1 | inactive | 74.7 | 74.2 | 95.3 | Active | Dose-dependent-effect | 17.4 | –

Source: ChEMBL document CHEMBL6120941, “Discovery of SIRT1-Activating Hydrogen Sulfide Donating Derivatives for Efficient Resistant of Myocardial Ischemic Injury” (J Med Chem, 2024)
